pIC50, pKd: −log10 of the molar value. Calls of active or inactive are those of the source. No cut-off for these calls is given here.
Legend:
[1] = (§1) Inhibition of Pseudomonas aeruginosa RuvA/RuvB protein complex helicase activity expressed in Escherichia coli BL21(DE3) assessed as inhibition of HJ branch migration preincubated for 15 mins followed by substrate addition and measured after 1 hr using 5'-FAM labelled 5'-CACTGTGATGCACGATGATTGACGACAGTAGTCAGTGCTGCAGTGGTCAGGTGTC-3' HJ-a duplex DNA as substrate in presence of ATP by PAGE analysis
Pseudomonas aeruginosa [2] = test: Inhibition of Pseudomonas aeruginosa RuvA expressed in Escherichia coli BL21(DE3) binding to HJ DNA assessed as reduction in RuvA-HJ DNA complex formation at 40 uM and measured after 15 mins using 5'-FAM labelled Holliday junction DNA as substrate by EMSA analysis
Pseudomonas aeruginosa [3] = test: Inhibition of Pseudomonas aeruginosa RuvA expressed in Escherichia coli BL21(DE3) binding to HJ DNA assessed as reduction in RuvA-HJ DNA complex formation at >10 uM and measured after 15 mins using 5'-FAM labelled Holliday junction DNA as substrate by EMSA analysis
Pseudomonas aeruginosa [4] = test: Antimicrobial activity against Pseudomonas aeruginosa ATCC27853 assessed as colony formation at 50 uM preincubated for 1 hr followed by UV-light irradiation for 5 mins then culture on LB-agar plate for overnight by colony counting method; format: functional, organism-based
[5] = as §1, with “Bacillus subtilis” for “Pseudomonas aeruginosa”
[6] = as §1, with “Thermus thermophilus” for “Pseudomonas aeruginosa”
Pseudomonas aeruginosa [7] = test: Inhibition of Pseudomonas aeruginosa RuvA expressed in Escherichia coli BL21(DE3) binding to HJ DNA assessed as reduction in RuvA-HJ DNA complex formation at >20 uM and measured after 15 mins using 5'-FAM labelled Holliday junction DNA as substrate by EMSA analysis
Pseudomonas aeruginosa [8] = test: Antimicrobial activity against Pseudomonas aeruginosa ATCC27853 assessed as colony formation at 2 uM preincubated for 1 hr followed by UV-light irradiation for 5 mins then culture on LB-agar plate for overnight by colony counting method; format: functional, organism-based
[9] = Inhibition of HJ-DNA dependent Pseudomonas aeruginosa RuvB ATPase activity expressed in Escherichia coli BL21(DE3) assessed as inhibition of ATP hydrolysis preincubated with compound followed by ATP addition and measured after 1 hr by Kinase-Glo reagent based luminescence analysis
Pseudomonas aeruginosa [10] = test: Binding affinity to CM5 chip immobilized Pseudomonas aeruginosa wild type RuvB expressed in Escherichia coli BL21(DE3) assessed as association rate constant (ka) measured for 240 sec by surface plasmon resonance analysis
Pseudomonas aeruginosa [11] = test: Binding affinity to CM5 chip immobilized Pseudomonas aeruginosa wild type RuvB expressed in Escherichia coli BL21(DE3) assessed as dissociation rate constant (kd) measured for 180 sec by surface plasmon resonance analysis
[12] = Binding affinity to CM5 chip immobilized Pseudomonas aeruginosa wild type RuvB expressed in Escherichia coli BL21(DE3) assessed as dissociation constant measured for 180 sec by surface plasmon resonance analysis
Pseudomonas aeruginosa [13] = test: Binding affinity to CM5 chip immobilized Pseudomonas aeruginosa RuvB D114N mutant expressed in Escherichia coli BL21(DE3) assessed as association rate constant (ka) measured for 240 sec by surface plasmon resonance analysis
Pseudomonas aeruginosa [14] = test: Binding affinity to CM5 chip immobilized Pseudomonas aeruginosa RuvB D114N mutant expressed in Escherichia coli BL21(DE3) assessed as dissociation rate constant (kd) measured for 180 sec by surface plasmon resonance analysis
[15] = Binding affinity to CM5 chip immobilized Pseudomonas aeruginosa RuvB D114N mutant expressed in Escherichia coli BL21(DE3) assessed as dissociation constant measured for 180 sec by surface plasmon resonance analysis

SMILES	pIC50 [1]	inhibition (Pseudomonas aeruginosa [2])	inhibition (Pseudomonas aeruginosa [3])	Activity (Pseudomonas aeruginosa [4])	pIC50 [5]	pIC50 [6]	inhibition (Pseudomonas aeruginosa [7])	Activity (Pseudomonas aeruginosa [8])	pIC50 [9]	Ka (Pseudomonas aeruginosa [10])	Kdiss (Pseudomonas aeruginosa [11])	pKd [12]	Ka (Pseudomonas aeruginosa [13])	Kdiss (Pseudomonas aeruginosa [14])	pKd [15]
COC(=O)[C@]12CCC(C)(C)C[C@H]1[C@H]1C(=O)C=C3[C@@]4(C)C=C(C#N)C(=O)C(C)(C)[C@@H]4CC[C@@]3(C)[C@]1(C)CC2 [BARDOXOLONE METHYL]	6.42	Active	Active	Active	–	–	–	–	–	–	–	–	–	–	–
CC1=C(C)C(=O)C(CCCCCCCCCC[P+](c2ccccc2)(c2ccccc2)c2ccccc2)=CC1=O	5.33	Active	–	–	4.87	5.10	Active	Active	–	–	–	–	–	–	–
O=C(O[C@@H]1O[C@@H]2COC(=O)c3cc(O)c(O)c(O)c3-c3c(cc(O)c(O)c3O)C(=O)O[C@H]([C@H]1O)[C@@H]2O)c1cc(O)c(O)c(O)c1 [CORILAGIN]	6.40	–	–	Active	6.08	5.95	–	–	5.63	1.6 10^4/M/s	2.2 10^-3/s	6.89	5.9 10^3/M/s	2.4 10^-3/s	6.39
